Starred links: 1 amine or outer side, 2 acyl side, 3 side chain; linkers in the order of their positions; H or OH if unused. Positions of bridges follow the written chain, without caps; N, C: chain ends. Non-standard residues stand in square brackets, D forms with d. Residues, ends and D or L forms follow the SMILES beside them. Chains are numbered I, II in the order given. *: point of attachment. X2 = OC[C@H]1O[C@@H](O[C@H]2[C@H](O)[C@@H](O)[C@H](*)O[C@@H]2CO)[C@H](O)[C@@H](O)[C@H]1O; X7 = O=C(O)CN1CCN(CC(=O)O)CCN([C@H](CCC(=O)*)C(=O)O)CCN(CC(=O)O)CC1; Benzoyl(4-SiFtBu2) = CC(C)(C)[Si](F)(c1ccc(C(=O)*)cc1)C(C)(C)C; X5 = CC(C)(C)[Si](F)(c1ccc(C[N+](C)(C)CC(=O)*)cc1)C(C)(C)C; DOTA = O=C(O)CN1CCN(CC(=O)O)CCN(CC(=O)*)CCN(CC(=O)O)CC1; d(γGlu) = O=C(O)[C@@H](CCC(=O)[*:2])N[*:1]; 2Nal = N[C@@H](Cc1ccc2ccccc2c1)C(=O)O; dNMeOrn = CN[C@H](CCCN)C(=O)O; d(hCys) = N[C@H](CCS)C(=O)O; 4Abz = Nc1ccc(C(=O)O)cc1; dDap = NC[C@@H](N)C(=O)O; CO = O=C([*:1])[*:2]; Ahx = NCCCCCC(=O)O
What was measured:
CXCR4 = CXCR4 (Homo sapiens, UniProt P61073); test: Determination of IC50: competition with 125I-Fc-131 on CXCR4-positive Jurkat cells; type: binding; set-up: CXCR4-positive Jurkat T lymphocyte cells were grown in Gibco's RPMI 1640 GlutaMAX medium; endogenous in cells; host or cells: Jurkat T lymphocyte cells (whole cells in suspension, 400.000 per tube); conditions: unlabeled or cold (natGa/natLu) compound vs 125I-Fc-131, Jurkat cells;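 further: test compound at 10^−5 to 10^−11 M competed for 2 h at 8 °C with the radioligand on 400,000 cells per well, bound versus free activity measured by γ-counting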
[1] = Octanol/PBS partition coefficient (logD7.4); type: physicochemical; conditions: n-octanol/PBS pH 7.4, radiolabeled compound
Method: The tubes were vortexed at maximum speed for 3 min to ensure equilibrium before centrifugation at 15.000×g for 5 min on a Biofuge 15 from Heraeus Holding GmbH (Osterode, Germany). An aliquot of 100 μL of each fraction was measured in the γ-counter and the log D7.4 calculated as follows: […]

Sequence of CXCR4 (P61073 whole entry): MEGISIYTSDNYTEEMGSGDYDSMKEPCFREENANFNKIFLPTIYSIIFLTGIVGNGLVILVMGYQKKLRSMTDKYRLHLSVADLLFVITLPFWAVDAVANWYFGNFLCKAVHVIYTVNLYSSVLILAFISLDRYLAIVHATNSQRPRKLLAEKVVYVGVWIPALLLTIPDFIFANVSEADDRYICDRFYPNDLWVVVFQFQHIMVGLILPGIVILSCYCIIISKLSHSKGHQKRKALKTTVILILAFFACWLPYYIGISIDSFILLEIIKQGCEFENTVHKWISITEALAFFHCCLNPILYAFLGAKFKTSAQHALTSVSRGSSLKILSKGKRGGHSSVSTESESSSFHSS

SMILES	IC50 (CXCR4) [nM]	logD7.4 [1]
C[C@@H](NC(=O)[C@@H](CCCNC(=N)N)NC(=O)[C@@H](CN)NC(=O)CCCCCNC(=O)[C@@H](CNC(=O)CC[C@H](C(=O)O)N1CCN(CC(=O)O)CCN(CC(=O)O)CCN(CC(=O)O)CC1)NC(=O)[C@@H](CNC(=O)c1ccc([Si](F)(C(C)(C)C)C(C)(C)C)cc1)NC(=O)CC[C@@H](NC(=O)N[C@H](CCC(=O)O)C(=O)O)C(=O)O)C(=O)Nc1ccc(C(=O)NCCC[C@@H]2C(=O)N[C@@H](CCCNC(=N)N)C(=O)N[C@@H](Cc3ccc4ccccc4c3)C(=O)NCC(=O)N[C@H](Cc3ccc(O)cc3)C(=O)N2C)cc1 [CXCR4-SiFA-5 [Lu]] (I: {dE-CO-d(γGlu)}-[dDap](Benzoyl(4-SiFtBu2))[dDap](X7)[Ahx][dDap][dR][dA][4Abz] / II: cyclo([dY][dNMeOrn]R[2Nal]G); amide I:C-II:2)	45.8 ± 17.4	−1.73 ± 0.05 (6)
C[C@@H](NC(=O)[C@@H](CCCNC(=N)N)NC(=O)[C@@H](CN)NC(=O)CCCCCNC(=O)[C@@H](CNC(=O)CC[C@H](C(=O)O)N1CCN(CC(=O)O)CCN(CC(=O)O)CCN(CC(=O)O)CC1)NC(=O)C[N+](C)(C)Cc1ccc([Si](F)(C(C)(C)C)C(C)(C)C)cc1)C(=O)Nc1ccc(C(=O)NCCC[C@@H]2C(=O)N[C@@H](CCCNC(=N)N)C(=O)N[C@@H](Cc3ccc4ccccc4c3)C(=O)NCC(=O)N[C@H](Cc3ccc(O)cc3)C(=O)N2C)cc1 [CXCR4-SiFA-6 [Lu]]	8.29 ± 3.11	−0.85 ± 0.04 (6)
C[C@@H](NC(=O)[C@@H](CCCNC(=N)N)NC(=O)[C@@H](CN)NC(=O)CCCCCNC(=O)[C@@H](CNC(=O)CN1CCN(CC(=O)O)CCN(CC(=O)O)CCN(CC(=O)O)CC1)NC(=O)[C@@H](CCS[C@@H]1O[C@H](CO)[C@@H](O[C@@H]2O[C@H](CO)[C@H](O)[C@H](O)[C@H]2O)[C@H](O)[C@H]1O)NC(=O)C[N+](C)(C)Cc1ccc([Si](F)(C(C)(C)C)C(C)(C)C)cc1)C(=O)Nc1ccc(C(=O)NCCC[C@@H]2C(=O)N[C@@H](CCCNC(=N)N)C(=O)N[C@@H](Cc3ccc4ccccc4c3)C(=O)NCC(=O)N[C@H](Cc3ccc(O)cc3)C(=O)N2C)cc1 [CXCR4-SiFA-7 [Lu]] (I: X5-[d(hCys)](X2)[dDap](DOTA)[Ahx][dDap][dR][dA][4Abz] / II: cyclo([dY][dNMeOrn]R[2Nal]G); amide I:C-II:2)	6.05 ± 1.17	−2.23 ± 0.11 (7)

From patent US20250288704A1, “CXCR4-LIGANDS FOR DIAGNOSTIC AND THERAPEUTIC USE AND PRECURSORS THEREOF” (priority 2021, published 2025)
